Data as given in US12187713B2, “Immunomodulators, compositions and methods thereof” (Betta Pharmaceuticals Co., Ltd, priority 2019, dated 2025).

Target: PD-1/PD-L1 (Homo sapiens (Human), UniProt Q9NZQ7)
Assay: PD-1/PD-L1 Binding Assay (Alphascreen)
Protocol: PD-1/PD-L1 Binding Assay (Alphascreen)
The assays were conducted in a standard black 384-well polystyrene plate with a final volume of 20 μL. Inhibitors were first serially diluted in DMSO and then added to the plate wells before the addition of other reaction components. The final concentration of DMSO in the assay was […]. Add 100 nL/well of compound to the 384 reaction plate (6008280, PerkinElmer) with Echo and centrifuge at 1000 rpm for 1 minute. Add 5 μL/well 4×PD-L1 solutions to the 384 reaction plate, centrifuge at 1000 rpm for 1 minute, and add 5 μL/well 4×PD-1 solutions, centrifuge at 1000 rpm for 1 minute, and incubate at 25° C. for 15 minutes. The concentrations of the compounds were 300, 100, 33.33, 11.11, 3.70, 1.23, 0.41, 0.137, 0.046, 0.015, 0 nM, respectively. Add 10 μL/well 2× Anti-6×His AlphaLISA Acceptor beads and Streptavidin Donor beads solution (PerkinElmer-AL356F) to the above 384 reaction plate, centrifuge at 1000 rpm for 1 minute, and incubate at 25° C. in the dark for 120 minutes. Read the AlphaLISA signal value using the Envision Reader. IC50 determination was performed by fitting the curve of percent control activity versus the log of the inhibitor concentration using the GraphPad Prism 8.0 software.

PD-1/PD-L1, sequence (Q9NZQ7 19-238): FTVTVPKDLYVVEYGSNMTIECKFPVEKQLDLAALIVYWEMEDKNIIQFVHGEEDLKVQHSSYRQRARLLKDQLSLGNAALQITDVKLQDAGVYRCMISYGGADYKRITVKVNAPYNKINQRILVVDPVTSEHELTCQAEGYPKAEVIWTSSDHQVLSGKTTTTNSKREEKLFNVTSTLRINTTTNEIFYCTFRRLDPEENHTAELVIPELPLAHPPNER

Cc1c(-c2nc3cc(CN4CC[C@@H](C(=O)O)C4)c(OC(F)F)cc3o2)cccc1-c1cccc(-c2nc3cc(CN4CCCC4)cc(C#N)c3o2)c1C [Example 169, (R)-1-((2-(3′-(7-cyano-5-(pyrrolidin-1-ylmethyl)benzo[d]oxazol-2-yl)-2,2′-dimethyl-[1,1′-biphenyl]-3-yl)-6-(difluoromethoxy)benzo[d]oxazol-5-yl)methyl)pyrrolidine-3-carboxylic acid]
IC50 (range symbols): 0.1 to 5 nM

Cc1c(-c2nc3cc(CN4CCC(C)(CO)C4)c(OC(F)F)cc3o2)cccc1-c1cccc(-c2nc3cc(CN4CCC[C@H]4C(=O)O)c(OC(F)F)cc3o2)c1C (stereo partly drawn) [Example 77, ((6-(difluoromethoxy)-2-(3′-(6-(difluoromethoxy)-5-((3-(hydroxymethyl)-3-methylpyrrolidin-1-yl)methyl)benzo[d]oxazol-2-yl)-2,2′-dimethyl-[1,1′-biphenyl]-3-yl)benzo[d]oxazol-5-yl)methyl)-L-proline]
IC50 (numeric values): 1.2 nM

Cc1c(-c2nc3ccc(CN4CCCC4)cn3n2)cccc1-c1cccc(-c2nc3cc(CN4CCC[C@H]4C(=O)O)c(OC(F)F)cc3o2)c1C [Example 305, ((6-(difluoromethoxy)-2-(2,2′-dimethyl-3′-(6-(pyrrolidin-1-ylmethyl)-[1,2,4]triazolo[1,5-a]pyridin-2-yl)-[1,1′-biphenyl]-3-yl)benzo[d]oxazol-5-yl)methyl)-L-proline]
IC50 (numeric values): 0.87 nM

Cc1c(-c2nc3cc(CN4CCC[C@H]4C(=O)O)c(OC(F)F)cc3o2)cccc1-c1cccc(-c2nc3cc(CNCC4CCC(=O)N4)cc(C#N)c3o2)c1C (stereo partly drawn) [Example 139, ((2-(3′-(7-cyano-5-((((5-oxopyrrolidin-2-yl)methyl)amino)methyl)benzo[d]oxazol-2-yl)-2,2′-dimethyl-[1,1′-biphenyl]-3-yl)-6-(difluoromethoxy)benzo[d]oxazol-5-yl)methyl)-L-proline]
IC50 (range symbols): 0.1 to 5 nM

Cc1c(-c2nc3c(o2)CN(C)CC3)cccc1-c1cccc(-c2nc3cc(CN4CCC[C@H]4C(=O)O)c(OC(F)F)cc3o2)c1C [Example 188, ((6-(difluoromethoxy)-2-(2,2′-dimethyl-3′-(5-methyl-4,5,6,7-tetrahydrooxazolo[5,4-c]pyridin-2-yl)-[1,1′-biphenyl]-3-yl)benzo[d]oxazol-5-yl)methyl)-L-proline]
IC50 (range symbols): 0.1 to 5 nM

Cc1c(-c2nc3cc(CN4CCC[C@H]4C(=O)O)c(OC(F)F)cc3o2)cccc1-c1cccc(-c2nc3cc(CN4CC(N(C)C5COC5)C4)cc(C#N)c3o2)c1C [Example 149, ((2-(3′-(7-cyano-5-((3-(methyl(oxetan-3-yl)amino)azetidin-1-yl)methyl)benzo[d]oxazol-2-yl)-2,2′-dimethyl-[1,1′-biphenyl]-3-yl)-6-(difluoromethoxy)benzo[d]oxazol-5-yl)methyl)-L-proline]
IC50 (range symbols): 0.1 to 5 nM

Cc1c(Oc2ccc(CNC[C@@H]3CCC(=O)N3)cn2)cccc1-c1cccc(-c2nc3cc(CN4CCC[C@H]4C(=O)O)c(OC(F)F)cc3o2)c1C [Example 214, ((6-(difluoromethoxy)-2-(2,2′-dimethyl-3′-((5-(((((S)-5-oxopyrrolidin-2-yl)methyl)amino)methyl)pyridin-2-yl)oxy)-[1,1′-biphenyl]-3-yl)benzo[d]oxazol-5-yl)methyl)-L-proline]
IC50 (range symbols): > 50 nM

Cc1c(-c2nc3cc(CN4CC5(COC5)C4)c(OC(F)F)cc3o2)cccc1-c1cccc(-c2nc3cc(CN4CCC[C@H]4C(=O)O)c(OC(F)F)cc3o2)c1C [Example 47, ((2-(3′-(5-((2-oxa-6-azaspiro[3.3]heptan-6-yl)methyl)-6-(difluoromethoxy)benzo[d]oxazol-2-yl)-2,2′-dimethyl-[1,1′-biphenyl]-3-yl)-6-(difluoromethoxy)benzo[d]oxazol-5-yl)methyl)-L-proline]
IC50 (range symbols): 0.1 to 5 nM

Cc1c(Nc2cc(CN3CCCC3)ccn2)cccc1-c1cccc(-c2nc3cc(OC(F)F)c(CN4CCC[C@H]4C(=O)O)cc3o2)c1C [Example 183, ((5-(difluoromethoxy)-2-(2,2′-dimethyl-3′-((4-(pyrrolidin-1-ylmethyl)pyridin-2-yl)amino)-[1,1′-biphenyl]-3-yl)benzo[d]oxazol-6-yl)methyl)-L-proline]
IC50 (range symbols): 5 to 50 nM

Cc1c(-c2nc3cc(CN4CCC[C@H]4C(=O)O)c(OC(F)F)cc3o2)cccc1-c1cccc(-c2nc3cc(CNC4CC(O)C4)cc(C#N)c3o2)c1C (some centres unmarked) [Example 155]
IC50 (range symbols): 0.1 to 5 nM

Cc1c(-c2nc3cc(CNCCS(C)(=O)=O)c(OC(F)F)cc3o2)cccc1-c1cccc(-c2nc3cc(CN4CCC[C@H]4C(=O)O)c(OC(F)F)cc3o2)c1C [Example 32, ((6-(difluoromethoxy)-2-(3′-(6-(difluoromethoxy)-5-(((2-(methylsulfonyl)ethyl)amino)methyl)benzo[d]oxazol-2-yl)-2,2′-dimethyl-[1,1′-biphenyl]-3-yl)benzo[d]oxazol-5-yl)methyl)-L-proline]
IC50 (numeric values): 3.8 nM

Cc1c(-c2nc3cc(CN4CC(C)(C)C4)c(OC(F)F)cc3o2)cccc1-c1cccc(-c2nc3cc(CN4CCC[C@H]4C(=O)O)c(OC(F)F)cc3o2)c1C#N [Example 128, ((2-(2-cyano-3′-(6-(difluoromethoxy)-5-((3,3-dimethylazetidin-1-yl)methyl)benzo[d]oxazol-2-yl)-2′-methyl-[1,1′-biphenyl]-3-yl)-6-(difluoromethoxy)benzo[d]oxazol-5-yl)methyl)-L-proline]
IC50 (numeric values): 0.14 nM

Cc1c(-c2nc3cc(CN4CCC45COC5)ccc3o2)cccc1-c1cccc(-c2nc3cc(CN4CCC[C@H]4C(=O)O)c(OC(F)F)cc3o2)c1C [Example 106, ((2-(3′-(5-((6-oxa-1-azaspiro[3.3]heptan-1-yl)methyl)benzo[d]oxazol-2-yl)-2,2′-dimethyl-[1,1′-biphenyl]-3-yl)-6-(difluoromethoxy)benzo[d]oxazol-5-yl)methyl)-L-proline]
IC50 (range symbols): 0.1 to 5 nM

Cc1c(NC(=O)c2cn3c(n2)CNCC3)cccc1-c1cccc(-c2nc3cc(CN4CCC[C@H]4C(=O)O)c(OC(F)F)cc3o2)c1C [Example 303, ((6-(difluoromethoxy)-2-(2,2′-dimethyl-3′-(5,6,7,8-tetrahydroimidazo[1,2-a]pyrazine-2-carboxamido)-[1,1′-biphenyl]-3-yl)benzo[d]oxazol-5-yl)methyl)-L-proline]
IC50 (numeric values): 1.6 nM

Cc1c(-c2ccc(CN3CCCC3)c(Cl)c2)cccc1-c1cccc(-c2nc3cc(CN4CCC[C@H]4C(=O)O)c(OC(F)F)cc3o2)c1C [Example 219, ((2-(3″-chloro-2,2′-dimethyl-4″-(pyrrolidin-1-ylmethyl)-[1,1′:3′,1″-terphenyl]-3-yl)-6-(difluoromethoxy)benzo[d]oxazol-5-yl)methyl)proline]
IC50 (range symbols): 0.1 to 5 nM

Cc1c(-c2ccc(CN(C)CCCN(C)C)cc2)cccc1-c1cccc(-c2nc3cc(CN4CCC[C@H]4C(=O)O)c(OC(F)F)cc3o2)c1C [Example 226, ((6-(difluoromethoxy)-2-(4″-(((3-(dimethylamino)propyl)(methyl)amino)methyl)-2,2′-dimethyl-[1,1′:3′,1″-terphenyl]-3-yl)benzo[d]oxazol-5-yl)methyl)-L-proline]
IC50 (numeric values): 4.7 nM

Cc1c(-c2nc3cc(CN4CCC[C@H]4C(=O)O)c(OC(F)F)cc3o2)cccc1-c1cccc(-c2nc3cc(CN4CCC(C(N)=O)C4)cc(C#N)c3o2)c1C (stereo partly drawn) [Example 315, ((2-(3′-(5-((3-carbamoylpyrrolidin-1-yl)methyl)-7-cyanobenzo [d]oxazol-2-yl)-2,2′-dimethyl-[1,1′-biphenyl]-3-yl)-6-(difluoromethoxy)benzo[d]oxazol-5-yl)methyl)-L-proline]
IC50 (range symbols): 0.1 to 5 nM
